Data: patent US5039684A, “Tetrazole amide derivatives of heterocyclic alkenyl acid and their use as antiallergic substances” (Valeas S. p. A., priority 1989, dated 1991)
Structures can show the parent of a compound that is named as a salt.

Tests used:
mouse = test: Acute toxicity in the mouse, oral administration; format: in vivo
Experimental: (§1) Acute toxicity was evaluated in the mouse by administering the compounds orally at scalar doses to a maximum of 1000 mg/kg to evaluate the 50% lethal dose (LD50). The compounds were administered in carboxymethylcellulose (0.5%) in a volume of […] to male mice (Swiss stock) of average weight 20 g.

[1] = Acute toxicity in the mouse, oral administration; format: in vivo; details: mouse, in vivo, po, 1000 mg/kg, oral, 1000 mg/kg/os; read-out: mortality (%EAD)
Experimental: as §1

[2] = test system: passive cutaneous anaphylaxis; test: PCA test on the rat, oral administration before challenge with antigen; format: in vivo, rat (male Sprague Dawley); details: for inhibition in vivo at 3 mg/kg / inhibition in vivo at 10 mg/kg / inhibition in vivo at 30 mg/kg / ED50 / inhibition in vivo at 0.3 mg/kg / inhibition in vivo at 1 mg/kg: Rattus norvegicus, po; for inhibition in vivo at 3 mg/kg / inhibition in vivo at 10 mg/kg / inhibition in vivo at 30 mg/kg / ED50 / inhibition in vivo at 0.3 mg/kg / inhibition in vivo at 1 mg/kg / inhibition (%): 5 minutes before challenge; for inhibition in vivo at 3 mg/kg / inhibition in vivo at 10 mg/kg / inhibition in vivo at 30 mg/kg: read-out: inhibition (%); for ED50: 5 min, Table 2, oral administration, read-out: ED50 (conf. lim) P = 0.05; for ED50 OS/ED50 iv: oral 5 minutes before challenge / i.v. immediately before challenge; for inhibition (%): oral
Experimental: The serum, obtained from rats actively sensitized with ovalbumin (antigen) and suitably diluted, was injected intradermically into the shaven back of male Sprague Dawley rats (2 wheals per rat). The rats were treated intravenously after 24 hours with a solution of ovalbumin and Evans blue. Thirty minutes later they were killed and the diameter and intensity of the blue ring formed at the site of the intradermic injection were measured. […] The pharmacological screening was effected by administering the compounds of the present invention intravenously and orally. For intravenous administration (2 ml/kg), those compounds in which R1 =H (see formula I) were dissolved in an aqueous 1% NaHCO3 solution whereas for oral administration (4 ml/Kg) they were either suspended in 0.5% carboxymethylcellulose or dissolved in an aqueous 3% NaHCO3 solution.

[3] = test system: passive cutaneous anaphylaxis; test: PCA test on the rat, intravenous administration just before challenge with antigen; format: in vivo, rat (male Sprague Dawley); details: for inhibition in vivo at 1 mg/kg / inhibition in vivo at 0.3 mg/kg: read-out: inhibition (%); for ED50: read-out: ED50 (conf. lim) P = 0.05
Experimental: (§2) The serum, obtained from rats actively sensitized with ovalbumin (antigen) and suitably diluted, was injected intradermically into the shaven back of male Sprague Dawley rats (2 wheals per rat).
(§3) The rats were treated intravenously after 24 hours with a solution of ovalbumin and Evans blue. Thirty minutes later they were killed and the diameter and intensity of the blue ring formed at the site of the intradermic injection were measured.
(§4) For each treated group (5 per group) the % inhibition was then calculated with respect to the control group.
The pharmacological screening was effected by administering the compounds of the present invention intravenously and orally.
(§5) For intravenous administration (2 ml/kg), those compounds in which R1 =H (see formula I) were dissolved in an aqueous 1% NaHCO3 solution whereas for oral administration (4 ml/Kg) they were either suspended in 0.5% carboxymethylcellulose or dissolved in an aqueous 3% NaHCO3 solution.

[4] = test system: passive cutaneous anaphylaxis; test: PCA test on the rat, time response curve after oral administration; format: in vivo, rat (male Sprague Dawley); details: Rattus norvegicus, oral; for inhibition in vivo at 30 mg/kg: 30 mg/kg/os, read-out: inhibition %; for inhibition in vivo at 3 mg/kg: 3 mg/kg/os; for inhibition in vivo at 1 mg/kg: 1 mg/kg/os
Experimental: as §2, §3, §4, §5

[5] = Rattus norvegicus, iv, 1 mg/kg, immediately before challenge
[6] = Rattus norvegicus, iv, 3 mg/kg, immediately before challenge
[7] = Rattus norvegicus, iv, 10 mg/kg, immediately before challenge
[8] = Rattus norvegicus, iv, immediately before challenge
[9] = 5 min, 5 minutes before challenge
[10] = 0.25 h, 15 minutes before challenge
[11] = 0.5 h, 30 minutes before challenge
[12] = 1 h, 60 minutes before challenge
[13] = 2 h, 120 minutes before challenge

Row | SMILES | No. (dead) (mouse; mouse, in vivo, po, 1000 mg/kg) | mortality [1] | inhibition in vivo at 3 mg/kg ([2]; 3 mg/kg) | inhibition in vivo at 10 mg/kg ([2]; 10 mg/kg) | inhibition in vivo at 30 mg/kg ([2]; 30 mg/kg) | ED50 [2] | ED50 OS/ED50 iv [2] | inhibition in vivo at 1 mg/kg [3, 5] | inhibition in vivo at 3 mg/kg [3, 6] | inhibition in vivo at 10 mg/kg [3, 7] | ED50 [3, 8] | inhibition in vivo at 30 mg/kg [4, 9] | inhibition in vivo at 30 mg/kg [4, 10] | inhibition in vivo at 30 mg/kg [4, 11] | inhibition in vivo at 30 mg/kg [4, 12] | inhibition in vivo at 30 mg/kg [4, 13] | No. (dead) (mouse; oral, 1000 mg/kg/os, 8 treated) | inhibition in vivo at 0.3 mg/kg [3, 8] | further results
1 | O=C(/C=C/c1ccco1)Nc1nn[nH]n1 [VAL 47-010, N-1H-tetrazol-5-yl-[3-(2-furyl)]-acrylamide trans isomer] | 2 | 25% | 9.6% | 35.9% | 80.9% | 12.4 mg/kg | 3.95 | 29% | 40.2% | 84.1% | 3.13 mg/kg | 51.4% | 44.8% | 21.9% | 6.6% | 18.6% |  |  | inhibition in vivo at 30 mg/kg ([3]; Rattus norvegicus, iv, 30 mg/kg, immediately before challenge): 95.3%
2 | O=C(/C=C/c1ccc[nH]1)Nc1nn[nH]n1 [VAL 47-078, N-1H-tetrazol-5-yl-[3-(2-pyrrole)]-acrylamide trans isomer] |  | 0% | 7.4% | 35.8% | 38.3% |  |  | 11.2% | 41.3% | 78.6% | 3.85 mg/kg | 31.4% | 29.3% | 9% | 4.3% | 0.5% | 0 |  | 
3 | O=C(/C=C/c1cccnc1)Nc1nn[nH]n1 [VAL 47-017, N-1H-tetrazol-5-yl-[3-(3-pyridyl)]-acrylamide trans isomer] |  | 0% | 21.7% | 22.8% | 48.3% |  |  | 71.6% | 93.9% | 100% | 0.36 mg/kg | 45% | 7.3% | 1% | 0% | 0% | 0 | 45.7% | 
4 | O=C(/C=C/c1ccncc1)Nc1nn[nH]n1 [VAL 47-042, N-1H-tetrazol-5-yl-[3-(4-pyridyl)]-acrylamide trans isomer] |  | 0% | 0% | 5.3% | 21.4% |  |  | 41.7% | 77.8% |  | 1.28 mg/kg | 6.3% | 0% | 0.5% | 0% | 0% | 0 | 3.9% | 
5 | O=C(/C=C/c1cccs1)Nc1nn[nH]n1 [VAL 47-024, N-1H-tetrazol-5-yl-[3-(2-thienyl)] acrylamide trans isomer] |  | 0% | 30.2% | 53.8% | 53.3% |  |  | 18.1% | 64.9% | 100% | 2.29 mg/kg | 43.5% | 52.7% | 46.7% | 30.4% | 10.9% | 0 |  | 
6 | Cc1ccc(/C=C\C(=O)Nc2nn[nH]n2)o1 [VAL 47-073cis, N-1H-tetrazol-5-yl-[3-[5-methyl-(2-furyl)]]-acrylamide cis isomer] | 1 | 12.5% | 67.2% |  |  | 1.26 mg/kg | 0.22 | 6.6% | 25% | 69.4% | 5.76 mg/kg |  |  |  |  |  |  |  | inhibition in vivo at 0.3 mg/kg [2]: 25.1%; inhibition in vivo at 1 mg/kg [2]: 42.6%; inhibition in vivo at 3 mg/kg [4, 9]: 50.8%; inhibition in vivo at 3 mg/kg [4, 10]: 66.4%; inhibition in vivo at 3 mg/kg [4, 11]: 17.3%; inhibition in vivo at 3 mg/kg [4, 12]: 5.8%; inhibition in vivo at 3 mg/kg [4, 13]: 0%
7 | Cc1ccc(/C=C\C(=O)Nc2nn[nH]n2)s1 [VAL 47-005cis, N-1H-tetrazol-5-yl-[3-[5-methyl-(2-thienyl)]]acrylamide cis isomer] | 0 | 0% | 94.5% |  |  | 0.78 mg/kg | 0.88 | 54.6% | 82.9% |  | 0.89 mg/kg |  |  |  |  |  |  | 18% | toxicity (in words) (mouse; oral, mouse): do not determine any toxic effect; inhibition in vivo at 0.3 mg/kg [2]: 23.6%; inhibition in vivo at 1 mg/kg [2]: 51.1%; activity greater than its trans isomer (VAL 47-005) ([3]; i.v., ratio of ED50): about 3 times; inhibition in vivo at 1 mg/kg [4, 9]: 52.4%; inhibition in vivo at 1 mg/kg [4, 10]: 27.5%; inhibition in vivo at 1 mg/kg [4, 11]: 20.6%; inhibition in vivo at 1 mg/kg [4, 12]: 19.6%; inhibition in vivo at 1 mg/kg [4, 13]: 2.1%
8 | Cc1ccc(/C=C/C(=O)Nc2nn[nH]n2)s1 [VAL 47-005Na, N-1H-tetrazol-5-yl-[3-[5-methyl-(2-thienyl)]] acrylamide sodium salt trans isomer] |  |  |  |  |  |  |  |  |  |  |  |  |  |  |  |  | 0 |  | mortality (%EAD) (mouse; oral, 1000 mg/kg/os): 0%; inhibition (%) ([2]; 3 mg/kg): 26.7%; inhibition (%) ([2]; 10 mg/kg): 54.7%; inhibition (%) ([2]; 30 mg/kg): 65.8%; inhibition (%) ([3]; i.v., 1 mg/kg, immediately before challenge): 16.5%; inhibition (%) ([3]; i.v., 3 mg/kg, immediately before challenge): 40.7%; inhibition (%) ([3]; i.v., 10 mg/kg, immediately before challenge): 78.0%; ED50 (conf. lim) P = 0.05 ([3]; i.v., immediately before challenge): 3.74 (2.89-4.85) mg/kg/iv
